US20130142815A1, “ALPHA-METHYL-TRYPTOPHAN AS AN INHIBITOR OF INDOLEAMINE DIOXYGENASE” (Georiga Health Sciences Univ. Research Inst., Inc., priority 2010, published 2013)

Experiments:
[1] = molecular target: T1, indoleamine dioxygenase (IDO) (Mus musculus, UniProt P28776); experiment: Cell-free IDO inhibition assay with mouse intestinal mucosal lysates as the source of IDO; assay type: biochemical
T1 construct: mouse intestinal mucosal lysates were used as the source of IDO in a cell-free assay system; from tissue; host or cells: mouse intestinal mucosa (lysate)
T1 sequence (P28776 whole entry): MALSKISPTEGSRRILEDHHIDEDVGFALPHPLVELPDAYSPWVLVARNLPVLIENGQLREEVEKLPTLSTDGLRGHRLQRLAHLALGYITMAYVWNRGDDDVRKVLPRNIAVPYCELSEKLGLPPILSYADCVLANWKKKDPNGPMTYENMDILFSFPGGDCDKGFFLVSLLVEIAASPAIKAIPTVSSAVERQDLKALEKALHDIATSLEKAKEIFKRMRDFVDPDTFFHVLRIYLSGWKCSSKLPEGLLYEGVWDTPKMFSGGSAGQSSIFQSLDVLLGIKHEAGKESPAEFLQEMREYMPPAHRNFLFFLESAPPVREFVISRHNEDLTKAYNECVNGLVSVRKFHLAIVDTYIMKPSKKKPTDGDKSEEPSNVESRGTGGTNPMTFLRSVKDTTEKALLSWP
Source text: FIG. 1 presents the comparative potencies of D-, L-, and DL-isomers of 1-methyltryptophan (1-MT) and alpha-methyltryptophan (alpha-MT) for inhibition of indoleamine dioxygenase (IDO). […] In these studies, mouse intestinal mucosal lysates were used as the source of IDO in a cell-free assay system. Thus, α-MLT will produce anti-cancer effects in vivo by two different, but synergistic, mechanisms. It will block the transport function of ATB^0,+ in tumor cells, thus preventing entry of essential amino acids and glutamine, and consequently causing growth arrest and apoptosis.

[2] = molecular target: T2, IDO in DCs (Mus musculus, UniProt P28776); experiment: Mixed lymphocyte reaction: suppression of CD8+ T cell proliferation by IDO-positive DCs, [3H]thymidine incorporation; assay type: cell-based
T2 construct: endogenous in cells; host or cells: CD11c+ dendritic cells from a CpG 1826-treated C57Bl6 mouse
T2 sequence (P28776 whole entry): as above
Protocol: This example complements the cell-free in vitro measurements of IDO activity shown in Example 1 with a functional assay involving T cell proliferation. In this assay, CD8^+ T cells from a transgenic mouse (01.1) which carries the T-cell receptor specific for the ovalbumin peptide antigen Ser-Ile-Ile-Asn-Phe-Glu-Lys-Leu (SIINFEKL) were used. CD11c^+ dendritic cells (DCs) were also prepared from a C57B16 mouse that has been given CpG 1826 intravenously to induce IDO in DCs. A mixed lymphocyte reaction was then performed in which the ability of IDO-positive DCs to suppress the proliferation of CD8^+ T cells was monitored using [^3H]thymidine incorporation as the read-out. Thymidine incorporation in these T cells in the absence of DCs was taken as the control. When the T cells were cultured in the presence of IDO-positive DCs (10^5 cells), thymidine incorporation in T cells was suppressed by 63±3%. […] It is important to note that the concentration of α-MLT needed to inhibit IDO in DCs in this cell-based ex-vivo assay system (0.2 μM) is almost two orders of magnitude less than the IC50 observed for the inhibition of IDO in the cell-free assay system (˜20 μM). Based on these findings, it is expected that α-MLT will function as an anti-cancer agent in vivo by acting through two different mechanisms. […]

[3] = molecular target: T3, ATB0,+ (Homo sapiens, UniProt Q9UN76); experiment: Inward currents in ATB0,+-expressing Xenopus oocytes; assay type: cell-based; parameters: expressed in transfected cells; host or cells: Xenopus oocytes
T3 sequence (Q9UN76 1-642): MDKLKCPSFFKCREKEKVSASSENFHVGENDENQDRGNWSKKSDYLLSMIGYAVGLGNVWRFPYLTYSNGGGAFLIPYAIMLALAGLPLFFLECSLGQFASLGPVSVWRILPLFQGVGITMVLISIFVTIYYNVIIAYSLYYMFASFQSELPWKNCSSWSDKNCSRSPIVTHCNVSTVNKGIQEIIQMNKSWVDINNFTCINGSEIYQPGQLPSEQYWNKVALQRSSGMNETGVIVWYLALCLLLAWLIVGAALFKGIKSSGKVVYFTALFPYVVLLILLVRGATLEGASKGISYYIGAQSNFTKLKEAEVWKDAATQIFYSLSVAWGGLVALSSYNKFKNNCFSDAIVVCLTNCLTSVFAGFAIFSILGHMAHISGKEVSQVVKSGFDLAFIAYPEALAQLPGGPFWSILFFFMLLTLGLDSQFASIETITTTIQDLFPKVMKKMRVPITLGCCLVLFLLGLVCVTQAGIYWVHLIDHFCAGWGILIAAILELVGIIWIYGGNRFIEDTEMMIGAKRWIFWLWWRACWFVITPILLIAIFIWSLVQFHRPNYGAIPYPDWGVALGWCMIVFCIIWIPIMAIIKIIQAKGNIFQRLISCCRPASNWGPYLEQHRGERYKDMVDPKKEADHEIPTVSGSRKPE
Source text: Tryptophan is a substrate for ATB^0,+. […] Inhibition of glycine uptake could occur because α-MT is a transportable substrate for ATB^0,+ thus competing with glycine for the uptake process, or because it blocks the transporter without itself being transported. The Xenopus oocyte expression system can differentiate between these two modes of inhibition because transportable substrates would induce inward currents whereas blockers would not.
Next, the potency of α-MT to block the transporter under conditions that simulate those in vivo was determined (with all naturally occurring amino acids present at physiologic concentrations). ATB^0,+ accepts all proteinogenic amino acids except glutamate and aspartate. Therefore, using the Xenopus oocyte expression system, the transport activity of human ATB^0,+ was monitored in the presence of an amino acid mixture consisting of all proteinogenic amino acids, each at its respective physiologic concentration found in plasma. Inward currents were detected under these conditions in oocytes expressing human ATB^0,+. α-MT blocked the ATB^0,+-mediated inward currents in the presence of these amino acids. The inhibition was dose-dependent; the concentration of the blocker necessary to elicit 50% maximal inhibition was 255±24 μM (Karunakaran et al., 2008, Biochem J; 414: 343-355).
Although α-methyl-DL-tryptophan is a blocker of ATB^0,+, its potency is weak. […] The only commercially available α-methyltryptophan is the DL-form. Thus, an optical resolution method was developed to separate the L-isomer from the DL-form (FIG. 2). With this method, the L- and D-isomers of this compound were purified. The potencies of the two isomers as a blocker of ATB^0,+ was examined in Xenopus oocytes using the amino acid mixture simulating the plasma. The concentration of the L-isomer to elicit 50% maximal inhibition was 18±5 μM. This value is 14 times less than the corresponding value for the DL-form. With the D-isomer, the inhibition never increased beyond 40% even at 1 mM.

[4] = molecular target: T3, ATB0,+; parameters: expressed in transfected cells; host or cells: Xenopus oocytes; settings: tells transportable substrate from blocker; cited from earlier work
[5] = test system: mouse colon cancer cells; experiment: Mouse model of colon cancer, subcutaneous injection of mouse colon cancer cells; assay type: in vivo
Protocol: Further, alpha-methyltryptophan was administered in a mouse model of colon cancer. Following subcutaneous injection of mouse colon cancer cells into mice, mice were treated with alpha-methyltryptophan, either in drinking water or by intraperintoneal injection.

[6] = molecular target: T3, ATB0,+; settings: cited from earlier work
[7] = test system: MB231 cells; experiment: Mouse xenograft, MB231 ER-negative breast cancer cell line; assay type: in vivo; settings: in drinking water (2 mg/ml)
Protocol: (§1) Mouse xenograft studies were performed with two ER-positive breast cancer cell lines (ZR75.1 and MCF7) and one ER-negative breast cancer cell line (MB231). […] Plasma concentration of alpha-methyltryptophan in mice after two weeks of administration in drinking water was […] was not detectable in control mice.

[8] = test system: MCF7 cells; experiment: Mouse xenograft, MCF7 ER-positive breast cancer cell line; assay type: in vivo; settings: in drinking water (2 mg/ml); in the presence of estrogen administration
Protocol: as §1

[9] = test system: ZR75.1 cells; experiment: Mouse xenograft, ZR75.1 ER-positive breast cancer cell line; assay type: in vivo; settings: in drinking water (2 mg/ml)
Protocol: as §1

With α-methyl-L-tryptophan [α-MLT] the IC50 ([1]; read-out: IC50 observed for the inhibition of IDO in the cell-free assay system) was about 20 µM, the “reversal of suppression of thymidine incorporation in T cells by IDO-positive DCs” value ([2]; 0.2 μM, IDO-positive DCs (10^5 cells)) was “completely reversed” and the “concentration needed to inhibit IDO in DCs in cell-based ex-vivo assay system” value ([2]; cell-based ex-vivo assay) was 0.2 µM.

For `C[C@](N)(Cc1c[nH]c2ccccc12)C(=O)O` [α-MLT, α-methyl-L-tryptophan], the “potency as an IDO inhibitor (comparison, FIG. 1)” value [1] was “significantly more potent than the D-isomer”, the “potency as a blocker of ATB0,+ (in words)” value [3] was “more potent than α-methyl-D-tryptophan” and the “times less than the corresponding value for the DL-form” value ([3]; 50% maximal inhibition concentration, L-isomer vs DL-form) was 14 times.

With `C[C@@](N)(Cc1c[nH]c2ccccc12)C(=O)O` [D-isomer, α-methyl-D-tryptophan] the inhibition at 1000 µM ([3]; even at 1 mM, Xenopus oocytes, amino acid mixture simulating the plasma) was at most 40%.

For `CC(N)(Cc1c[nH]c2ccccc12)C(=O)O` (racemic) [α-methyl-DL-tryptophan], the “induction of inward currents in ATB0,+-expressing Xenopus oocytes” value [4] is listed as “did not induce inward currents”, the “reduction of tumor growth” value ([5]; in drinking water) is listed as “approximately 50%” and the “reduction of tumor growth” value ([5]; intraperitoneal injection) is listed as “approximately 50%”. The “effect on ATB0,+-mediated glycine uptake” value [6] was “inhibited”, the “potency as an IDO inhibitor (comparison, FIG. 1)” value [1] was “significantly greater than that of 1-methyltryptophan” and the “potency as a blocker of ATB0,+ (in words)” value [3] was “weak”. The “growth of MB231 cells in xenograft” value [7] was “did not effect the growth”, the “growth of MCF7 cells in xenograft” value [8] was “did not effect the growth” and the “growth of ZR75.1 cells in xenograft” value [9] was “reduced growth”.
